Data from patent US20250115582A1, “MOLECULAR GLUE DEGRADERS AND METHODS OF USING THE SAME” (Monte Rosa Therapeutics, Inc., priority 2022, published 2025).

What was measured:
[1] = test system: CW2; test: GI50 growth inhibition, CyQUANT, CW2; format: cell-based; conditions: Homo sapiens, CW-2, CW2 cells, 120 to 168 hours
Protocol: (§1) SKCO1, LS180, and LS174T cell lines were purchased from ATCC. CW2 cell line was purchased from Riken. GP2D cell line was purchased from Sigma/ECACC. All cell lines were cultured in manufacturer's recommended media at 37° C., 5% CO2. Briefly, cells were suspended in 200 μL of media and seeded at 300 to 1,800 cells per well in tissue culture treated 96-well plates with black walls and clear bottom. Plates were incubated overnight and initial (T0) read was performed the following day using CyQUANT Direct Cell Proliferation Assay Kit (Thermo Fisher Scientific) according to manufacturer's protocol. All compounds were solubilized in DMSO and prepared at 3-fold serial dilution, using 9 points starting at 30 μM as highest concentration, administered to cells and incubated for 120 to 168 hours, at which point CyQUANT assay measurement was performed using Acumen Cellista instrument (Ex/Em 480/520 nm). Media-only wells were used as blank, and 0.3% DMSO was used as DMSO-treated cell control. Growth inhibition (percent response) was calculated using the following formula in Excel: “=if ([Compound treated Day N]>[Untreated Day 0, AVG], ([Compound treated Day N]−[Untreated Day 0, AVG])/([Untreated Day N]−[Untreated Day 0, AVG])*100, ([Compound Treated Day N]−[Untreated Day 0, AVG])/([Untreated Day 0, AVG])*100)”. GI50 is the response corresponding to the 50% of untreated control.
(§2) GI50 data are reported in Tables 4a, 4b, 4c, 4d, and 4e for compounds in Table 1. In Tables 4a, 4b, 4c, 4d, and 4e below, According to the code, A represents a GI50 value of ≤0.1 μM, B represents a GI50 value>0.1 μM and ≤1 μM, C represents an GI50 value>1 μM.

[2] = biological target: T1, CK1a (Homo sapiens, UniProt P48729+Q96SW2); test: Western blot assay of CK1a levels in HEK293 and HEK293 CRBN knock-out cells; format: cell-based; conditions: 0.1, 1, 10 μM, 24 hours
T1 construct: host or cells: HEK293 and HEK293 CRBN knock-out clone B2 (generated internally)
T1 sequence (P48729 whole entry): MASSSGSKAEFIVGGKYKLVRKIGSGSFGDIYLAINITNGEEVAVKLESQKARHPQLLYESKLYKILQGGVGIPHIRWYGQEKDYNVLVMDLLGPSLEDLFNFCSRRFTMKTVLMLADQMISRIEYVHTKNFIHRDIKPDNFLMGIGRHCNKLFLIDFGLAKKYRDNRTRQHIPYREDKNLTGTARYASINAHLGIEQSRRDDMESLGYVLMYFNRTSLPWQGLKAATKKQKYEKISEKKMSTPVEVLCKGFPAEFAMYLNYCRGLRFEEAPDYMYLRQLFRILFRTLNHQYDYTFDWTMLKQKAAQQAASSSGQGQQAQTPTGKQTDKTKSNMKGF
T1 sequence (Q96SW2 whole entry): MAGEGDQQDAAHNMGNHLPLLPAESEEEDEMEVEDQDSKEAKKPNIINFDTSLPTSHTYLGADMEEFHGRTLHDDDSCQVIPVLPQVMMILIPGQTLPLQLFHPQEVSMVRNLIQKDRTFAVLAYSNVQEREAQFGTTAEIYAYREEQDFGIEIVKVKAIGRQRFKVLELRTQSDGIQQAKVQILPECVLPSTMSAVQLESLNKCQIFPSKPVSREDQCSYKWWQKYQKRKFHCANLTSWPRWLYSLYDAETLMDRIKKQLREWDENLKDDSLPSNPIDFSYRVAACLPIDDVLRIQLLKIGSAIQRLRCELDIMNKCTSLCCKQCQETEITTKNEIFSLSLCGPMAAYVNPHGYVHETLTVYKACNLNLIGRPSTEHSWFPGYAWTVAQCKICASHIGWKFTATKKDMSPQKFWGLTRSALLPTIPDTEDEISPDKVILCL
T1 sequence (Q16531 2-1140 partner limits assumed): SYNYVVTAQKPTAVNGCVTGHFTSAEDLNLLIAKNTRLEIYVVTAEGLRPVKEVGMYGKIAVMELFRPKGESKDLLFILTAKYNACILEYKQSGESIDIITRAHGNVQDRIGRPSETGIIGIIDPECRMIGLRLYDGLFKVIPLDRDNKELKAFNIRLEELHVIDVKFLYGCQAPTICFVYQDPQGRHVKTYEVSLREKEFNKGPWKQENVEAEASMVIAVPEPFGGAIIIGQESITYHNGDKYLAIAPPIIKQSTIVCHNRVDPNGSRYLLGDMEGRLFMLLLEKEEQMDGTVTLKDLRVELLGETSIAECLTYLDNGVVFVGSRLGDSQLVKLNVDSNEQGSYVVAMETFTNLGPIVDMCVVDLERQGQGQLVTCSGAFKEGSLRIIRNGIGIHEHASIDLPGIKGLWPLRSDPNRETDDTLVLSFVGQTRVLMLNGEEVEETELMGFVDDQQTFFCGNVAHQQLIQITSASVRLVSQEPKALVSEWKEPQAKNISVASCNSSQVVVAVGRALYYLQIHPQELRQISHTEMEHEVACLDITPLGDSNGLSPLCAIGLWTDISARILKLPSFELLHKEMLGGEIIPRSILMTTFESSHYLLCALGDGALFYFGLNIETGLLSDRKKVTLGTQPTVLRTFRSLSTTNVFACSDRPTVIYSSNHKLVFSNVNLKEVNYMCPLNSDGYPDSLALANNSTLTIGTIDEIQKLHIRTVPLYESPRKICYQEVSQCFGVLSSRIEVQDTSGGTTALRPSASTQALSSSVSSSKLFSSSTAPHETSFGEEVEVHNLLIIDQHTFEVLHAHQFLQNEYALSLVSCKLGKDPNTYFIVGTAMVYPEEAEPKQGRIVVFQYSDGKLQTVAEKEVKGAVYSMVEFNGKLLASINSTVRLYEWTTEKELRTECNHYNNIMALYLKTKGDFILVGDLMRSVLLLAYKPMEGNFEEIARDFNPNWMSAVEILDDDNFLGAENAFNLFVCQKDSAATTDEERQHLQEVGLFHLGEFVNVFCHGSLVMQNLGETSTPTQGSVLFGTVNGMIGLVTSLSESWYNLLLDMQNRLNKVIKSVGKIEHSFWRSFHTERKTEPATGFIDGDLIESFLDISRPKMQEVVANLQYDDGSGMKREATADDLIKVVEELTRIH
Protocol: FIG. 1 depicts effects of Compound 147 on CK1a levels in an HEK293 cell line in comparison to effects of Compound 147 on CK1a levels in a cereblon (CRBN) knock-out HEK293 cell line.
HEK293 cell line was purchased from ATCC (CRL-1573). HEK293 CRBN knock out (k/o) cell line (B2) was generated internally using CRISPR/Cas9 method and clonally expanded. Cells were plated at 2×10^5 cells per well in 6-well tissue culture plates (VWR) in 2 ml of DMEM media (Gibco) containing 10% FBS (Gibco), and incubated for 16 hours at 37° C., 5% CO2. Compounds were added to final concentration of 0.1 μM, 1 μM, 10 μM (DMSO concentration was kept constant at 0.1%), following incubation at 37° C., 5% CO2 for additional 24 hours. Cell lysis was performed using RIPA buffer (Pierce) containing Halt™ Protease Inhibitor Cocktail (ThermoFisher Scientific). Lysates were boiled at 95° C. for 10 minutes and 12 μg of protein lysate per sample was resolved by SDS-PAGE using 12% gels (BioRad) and transferred to nitrocellulose membrane (BioRad). Membranes were blocked using LI-COR blocking buffer (LI-COR) at room temperature for 1 hour, followed by overnight incubation with rabbit anti-CK1a (Abcam ab206652), rabbit anti-CRBN (Sigma HPA045910) and mouse anti-α-tubulin (Sigma T9026) antibodies at 4° C. […]

[3] = test system: LS180; test: GI50 growth inhibition, CyQUANT, LS180; format: cell-based; conditions: Homo sapiens, LS180 cells, 120 to 168 hours
Protocol: as §1, §2

[4] = test system: SKCO1; test: GI50 growth inhibition, CyQUANT, SKCO1; format: cell-based; conditions: Homo sapiens, SK-CO-1, SKCO1 cells, 120 to 168 hours
Protocol: as §1, §2

[5] = test system: GP2D; test: GI50 growth inhibition, CyQUANT, GP2D; format: cell-based; conditions: GP2D cells, 120 to 168 hours
Protocol: as §1, §2

[6] = test system: LS174T; test: GI50 growth inhibition, CyQUANT, LS174T; format: cell-based; conditions: Homo sapiens, LS174T cells, 120 to 168 hours
Protocol: as §1, §2

[7] = Mouse oral PK at 10 mg/kg; format: in vivo; conditions: male BALB/c mice, PO 10 mg/kg, plasma
Protocol: Male BALB/c mice were fasted overnight and administered a discrete, PO dose of Compound 154 or Compound 147 at 10 mg/kg.
Blood samples were collected serially from three animals/time-point following PO administration of the test compounds to the mice and placed in tubes containing K2EDTA. The blood samples were centrifuged, and the aliquots of the resulting plasma stored frozen at −60 to −90° C.
The plasma samples were analyzed by LC-MS/MS to determine concentrations of the test compounds. The in-life portion of the study and the bioanalysis of plasma samples was conducted at Wuxi (China).
The pharmacokinetic parameters for compound 154 or compound 147 were calculated by non-compartmental analysis using Phoenix WinNonlin software.

Row | Structure (SMILES) | GI50 [1] | CK1a levels in cereblon (CRBN) knock-out HEK293 cell line (Western blot, FIG. 1) ([2]; HEK293 CRBN knock-out cell line) | CK1a levels in HEK293 cell line (Western blot, FIG. 1) ([2]; HEK293 cell line, cereblon present) | GI50 [3] | GI50 [4] | GI50 [5] | GI50 [6] | Tmax [7] | AUC ([7]; Mean ± SD) | AUC(0-t) ([7]; Mean ± SD) | Cmax ([7]; Mean ± SD) | half-life ([7]; Mean ± SD)
1 | O=C1CCC(N2Cc3cc(NC(=O)c4ccc(Cl)cc4)ccc3C2=O)C(=O)N1 (stereo not drawn) [Compound 147] | 100 to 1000 nM | no effect on CK1a levels | decreases CK1a levels | > 1000 nM | 100 to 1000 nM | > 1000 nM | > 1000 nM | 0.5 h | 1210 ± 235 ng·h/mL | 1170 ± 258 ng·h/mL | 574 ± 76.8 ng/mL | –
2 | O=C1CCC(N2Cc3cc(NC(=O)c4ncn(-c5ccccc5)c4C(F)(F)F)ccc3C2=O)C(=O)N1 (stereo not drawn) [Compound 154, N-(2-(2,6-dioxopiperidin-3-yl)-1-oxoisoindolin-5-yl)-1-phenyl-5-(trifluoromethyl)-1H-imidazole-4-carboxamide] | < 100 nM | – | – | 100 to 1000 nM | < 100 nM | 100 to 1000 nM | 100 to 1000 nM | 1 h | 50900 ± 10400 ng·h/mL | 50900 ± 10300 ng·h/mL | 12900 ± 2560 ng/mL | 2.19 ± 0.24 h
